Several values for one entry are separate records, joined by “and”; a condition that tells them apart may be missing. Equal entries are not always repeated.
Test system: rs149354567 (CDRT8/PMP22, chromosome 17); rs10811106 (SAXO1, chromosome 9)
Assay: COLCOT pharmacogenomic GWAS and Cox / recurrent-event analyses of the primary efficacy end point by genotype
Type: in vivo, human
Settings: for Primary end point, HR (95% CI) for rs149354567 minor (GA) versus major (G) allele: Cox, controlling for age, sex, C1-C10; for Recurrent primary end point events, Hazard Ratio (95% CI), Andersen-Gill model / Recurrent primary end point events, Hazard Ratio (95% CI), WLW model K = 2, 1st Event / Recurrent primary end point events, Hazard Ratio (95% CI), WLW model K = 2, 2nd Event / Recurrent primary end point events, Hazard Ratio (95% CI), WLW model K = 2, Average / Recurrent primary end point events, Rate Ratio (95% CI), Negative binomial model: colchicine vs placebo
Text: FIG. 3 is a Manhattan plot of a Genome-wide Association Study (GWAS) with common single-nucleotide polymorphisms (SNPs) with minor allele frequency (MAF)≥5% for the primary efficacy end point using a survival analysis (coxph) regression with all patients in colchicine treatment arm (compliant ITT pgx population) in the COLCOT cohort, controlling for age, sex, principal components (C1-C10) with a threshold of 5.000E-08 (4,462,492 variants and 702 samples).
FIG. 4 is a plot of SNPs located on chromosome 17 (from 14,623,118 to 15,623,118 bp) for the primary efficacy end point using a survival analysis (coxph) regression with all patients in colchicine treatment arm (compliant ITT pgx population) in the COLCOT cohort, controlling for age, sex, principal components (C1-C10) with a threshold of 5.000E-08 (4,462,492 variants and 702 samples).
FIG. 8 is a Manhattan plot of GWAS with common SNPs with MAF≥5% for the primary efficacy endpoint using a survival analysis (coxph) regression with male patients in colchicine treatment arm (compliant ITT pgx population) in the COLCOT cohort, controlling for age, sex specific principal components (SC1-SC10) with a threshold of 5.000E-08 (4,455,743 variants and 576 samples).
FIG. 9 is a plot of single-nucleotide polymorphisms (SNPs) located on chromosome 9 (from 18,537,533 to 19,537,533 bp) for primary efficacy endpoint using a survival analysis (coxph) regression with male patients in colchicine treatment arm (compliant ITT pgx population) in the COLCOT cohort, controlling for age, sex specific principal components (SC1-SC10) with a threshold of 5.000E-08 (4,455,743 variants and 576 samples).
A Genome-wide Association Study (GWAS) was performed for the COLCOT primary efficacy end points. The primary efficacy endpoints were, the earliest occurrence of: cardiovascular death, resuscitated cardiac arrest, acute myocardial infarction, stroke, or urgent hospitalization for angina requiring coronary revascularization.
A plot of SNPs located on chromosome 17 (from 14,623,118 to 15,623, 118 bp) for the primary efficacy end point using a survival analysis (coxph) regression with all patients in colchicine treatment arm (compliant ITT pgx population) in the COLCOT cohort is shown in FIG. 4. Within this region, SNP rs149354567 was identified for further analysis (Table 10). SNP rs149354567 is intergenic for the CDR8T (CMT1A duplicated region transcript 8) gene and the PMP22 (peripheral myelin protein 22) gene.
A Cox statistical analysis for the primary endpoint comparing the chromosome 17 SNP rs149354567 minor versus major alleles by treatment arms is shown in Table 11 below.
A Cox statistical analysis for the primary end point comparing colchicine versus placebo for SNP rs149354567 genotypes is shown in Table 12 below.
The above analysis is based on time to first event among the components of the primary end point. Three other analyses were also considered to account for multiple events within subjects. These analyses make use of all events, including the ones that occur after the first. The Wei, Lin, and Weissfeld (WLW) marginal model, the Andersen and Gill (AG) model, and the negative binomial model were used.
A further region of the genome with a genetic variant, rs10811106, that, in males, is associated with efficacy of colchicine in the prevention of cardiovascular events in participants recruited within 30 days of a myocardial infarction (acute coronary syndrome) was identified using similar statistical analyses (FIG. 8). SNP rs10811106 is intronic in the SAXO1 (stabilizer of axonemal microtubules 1) gene (FIG. 9). SNP rs10811106 was associated with the primary efficacy endpoint of COLCOT (composite of cardiovascular death, resuscitated cardiac arrest, myocardial infarction, stroke, or urgent hospitalization for angina requiring coronary revascularization) in the colchicine treatment arm (P=5.8×10^−8).

[1] = colchicine arm N=2, rs149354567 genotype GA/GA
[2] = colchicine arm N=102, rs149354567 genotype G/GA
[3] = colchicine arm N=585, rs149354567 genotype G/G
[4] = colchicine arm N=689, all rs149354567 genotypes
[5] = rs10811106 chr 9, EA T vs NEA C, N 564, 30 events

Compound: COc1cc2c(c(OC)c1OC)-c1ccc(OC)c(=O)cc1[C@@H](NC(C)=O)CC2 [Colchicine, colchicine]
- fewer cardiovascular events with colchicine compared to placebo (carriers of genotype G-/G- at rs149354567): 40%
- Recurrent primary end point events, Hazard Ratio (95% CI) for one unit increase of rs149354567 dosage, Andersen-Gill model (colchicine arm): 4.55 (2.45; 8.46)
- Recurrent primary end point events, Hazard Ratio (95% CI) for one unit increase of rs149354567 dosage, WLW model K = 2, 1st Event (colchicine arm): 5.30 (2.90; 9.70)
- Recurrent primary end point events, Hazard Ratio (95% CI) for one unit increase of rs149354567 dosage, WLW model K = 2, 2nd Event (colchicine arm): 3.96 (0.99; 15.80)
- Recurrent primary end point events, Hazard Ratio (95% CI) for one unit increase of rs149354567 dosage, WLW model K = 2, Average (colchicine arm): 5.28 (2.88; 9.66)
- Recurrent primary end point events, Rate Ratio (95% CI) for one unit increase of rs149354567 dosage, Negative binomial model (colchicine arm): 4.58 (2.40; 8.74)
- Primary end point events rate per 100 subject-months (colchicine arm N=2, genotype GA/GA): 0 per 100 subject-months
- Total number of primary end point events (colchicine arm N=2, genotype GA/GA, 24 follow-up months): 0
- Primary end point, patients with events (at least one event) (colchicine arm N=2, rs149354567 GA/GA): 0
- Number of subjects with 0 primary end point events [1]: 2
- Number of subjects with 1 primary end point event [1]: 0
- Number of subjects with 2 primary end point events [1]: 0
- Number of subjects with 3 primary end point events [1]: 0
- Number of subjects with 4 primary end point events [1]: 0
- Primary end point events rate per 100 subject-months (colchicine arm N=102, genotype G/GA): 0.71 per 100 subject-months
- Total number of primary end point events (colchicine arm N=102, genotype G/GA, 2678 follow-up months): 19
- Primary end point, patients with events (at least one event) (colchicine arm N=102, rs149354567 G−/GA): 17
- Number of subjects with 0 primary end point events [2]: 85
- Number of subjects with 1 primary end point event [2]: 15
- Number of subjects with 2 primary end point events [2]: 2
- Number of subjects with 3 primary end point events [2]: 0
- Number of subjects with 4 primary end point events [2]: 0
- Primary end point, patients with events (colchicine arm N=104, rs149354567 G−/GA+GA/GA): 17
- Primary end point events rate per 100 subject-months (colchicine arm N=585, genotype G/G): 0.16 per 100 subject-months
- Total number of primary end point events (colchicine arm N=585, genotype G/G, 14370 follow-up months): 23
- Primary end point, patients with events (at least one event) (colchicine arm N=585, rs149354567 G−/G−): 20
- Number of subjects with 0 primary end point events [3]: 565
- Number of subjects with 1 primary end point event [3]: 17
- Number of subjects with 2 primary end point events [3]: 3
- Number of subjects with 3 primary end point events [3]: 0
- Number of subjects with 4 primary end point events [3]: 0
- Number of subjects with 0 primary end point events [4]: 652
- Number of subjects with 1 primary end point event [4]: 32
- Number of subjects with 2 primary end point events [4]: 5
- Number of subjects with 3 primary end point events [4]: 0
- Number of subjects with 4 primary end point events [4]: 0
- Primary end point events rate per 100 subject-months [4]: 0.25 per 100 subject-months
- Total number of primary end point events (colchicine arm N=689, all rs149354567 genotypes, 17072 follow-up months): 42
- Primary end point, patients with events (at least one event) (colchicine arm N=689, all rs149354567 genotypes, compliant ITT pgx population): 37
- Primary end point, % of events (colchicine arm, all rs149354567 genotypes): 5.4%
- Primary end point, hr per effect allele, rs75780450 (T vs C) (colchicine arm, males + females, compliant ITT pgx population): 4.611
- Primary end point, hr per effect allele, rs1854156 (C vs G) (colchicine arm, males only): 5.104
- Primary end point, hr per effect allele, rs10118790 (A vs G) (colchicine arm, males only): 5.05
- Primary end point, hr per effect allele, rs10811106 (T vs C) (colchicine arm, males only): 5.503
- Primary end point, hr per effect allele, rs10963895 (A vs G) (colchicine arm, males only): 4.191
- Primary end point, hr per effect allele, rs28733572 (C vs G) (colchicine arm, males only): 5.043
- Primary end point, % of events (colchicine arm, rs149354567 G−/GA): 16.7%
- Primary end point, % of events (colchicine arm, rs149354567 G−/GA+GA/GA): 16.3%
- Primary end point, % of events (colchicine arm, rs149354567 G−/G−): 3.4%
- Primary end point, HR (95% CI) for rs149354567 minor (GA) versus major (G) allele (colchicine arm, compliant ITT pgx population): 5.30 (2.84-9.89)
- Primary end point, HR (95% CI) for rs149354567 minor (GA) versus major (G) allele (colchicine arm, compliant ITT pgx population, listed as colchicine): 5.30 and 5.299
- Recurrent primary end point events, Hazard Ratio (95% CI), Andersen-Gill model (all rs149354567 genotypes): 0.61 (0.39; 0.96)
- Recurrent primary end point events, Hazard Ratio (95% CI), WLW model K = 2, 1st Event (all rs149354567 genotypes): 0.82 (0.53; 1.28)
- Recurrent primary end point events, Hazard Ratio (95% CI), WLW model K = 2, 2nd Event (all rs149354567 genotypes): 0.28 (0.10; 0.73)
- Recurrent primary end point events, Hazard Ratio (95% CI), WLW model K = 2, Average (all rs149354567 genotypes): 0.80 (0.52; 1.25)
- Recurrent primary end point events, Rate Ratio (95% CI), Negative binomial model (all rs149354567 genotypes): 0.57 (0.34; 0.94)
- Recurrent primary end point events, Hazard Ratio (95% CI), Andersen-Gill model (rs149354567 genotype G/G): 0.48 (0.27; 0.85)
- Recurrent primary end point events, Hazard Ratio (95% CI), WLW model K = 2, 1st Event (rs149354567 genotype G/G): 0.60 (0.34; 1.04)
- Recurrent primary end point events, Hazard Ratio (95% CI), WLW model K = 2, 2nd Event (rs149354567 genotype G/G): 0.25 (0.07; 0.85)
- Recurrent primary end point events, Hazard Ratio (95% CI), WLW model K = 2, Average (rs149354567 genotype G/G): 0.59 (0.34; 1.03)
- Recurrent primary end point events, Rate Ratio (95% CI), Negative binomial model (rs149354567 genotype G/G): 0.43 (0.23; 0.82)
- Recurrent primary end point events, Hazard Ratio (95% CI), Andersen-Gill model (rs149354567 genotype G/G, listed as colchicine): 0.48
- Recurrent primary end point events, Hazard Ratio (95% CI), Andersen-Gill model (rs149354567 genotype G/GA): 0.84 (0.34; 2.11)
- Recurrent primary end point events, Hazard Ratio (95% CI), WLW model K = 2, 1st Event (rs149354567 genotype G/GA): 1.62 (0.69; 3.79)
- Recurrent primary end point events, Hazard Ratio (95% CI), WLW model K = 2, 2nd Event (rs149354567 genotype G/GA): 0.17 (0.03; 1.02)
- Recurrent primary end point events, Hazard Ratio (95% CI), WLW model K = 2, Average (rs149354567 genotype G/GA): 1.35 (0.58; 3.12)
- Recurrent primary end point events, Rate Ratio (95% CI), Negative binomial model (rs149354567 genotype G/GA): 0.91 (0.39; 2.08)
- fewer cardiovascular events with colchicine compared to placebo (males, genotype C/C at rs10811106): 54%
- Primary end point in males only, HR (95% CI) colchicine versus placebo (rs10811106 CT (16%), N total 182): 2.49 (0.92-6.75)
- Coefficient, genetic association, chromosome 9 locus (primary efficacy end point) [5]: 1.705
- HR (hazard ratio), genetic association, chromosome 9 locus (primary efficacy end point) [5]: 5.50
